Key:
[1] = biological target: 5-hydroxytryptamine receptor 2B (Homo sapiens, UniProt P41595); assay: Displacement of [3H]LSD from human recombinant 5HT2B receptor incubated for […] by microbeta scintillation counting method
Histamine H1 receptor = Histamine H1 receptor (Homo sapiens, UniProt P35367); assay: Displacement of [3H]Pyrilamine from human recombinant histamine H1 receptor incubated for […] by microbeta scintillation counting method
[2] = Lipophilicity, log P of the compound; format: physicochemical; details: octanol/water
[3] = biological target: Sodium-dependent serotonin transporter (Homo sapiens, UniProt P31645); assay: Displacement of [3H]Citalopram from human recombinant SERT incubated for […] by microbeta scintillation counting method
[4] = biological target: 5-hydroxytryptamine receptor 7 (Homo sapiens, UniProt P34969); assay: Displacement of [3H]LSD from human recombinant 5HT7 receptor incubated for […] by microbeta scintillation counting method
5-hydroxytryptamine receptor 7, sequence (P34969 whole entry): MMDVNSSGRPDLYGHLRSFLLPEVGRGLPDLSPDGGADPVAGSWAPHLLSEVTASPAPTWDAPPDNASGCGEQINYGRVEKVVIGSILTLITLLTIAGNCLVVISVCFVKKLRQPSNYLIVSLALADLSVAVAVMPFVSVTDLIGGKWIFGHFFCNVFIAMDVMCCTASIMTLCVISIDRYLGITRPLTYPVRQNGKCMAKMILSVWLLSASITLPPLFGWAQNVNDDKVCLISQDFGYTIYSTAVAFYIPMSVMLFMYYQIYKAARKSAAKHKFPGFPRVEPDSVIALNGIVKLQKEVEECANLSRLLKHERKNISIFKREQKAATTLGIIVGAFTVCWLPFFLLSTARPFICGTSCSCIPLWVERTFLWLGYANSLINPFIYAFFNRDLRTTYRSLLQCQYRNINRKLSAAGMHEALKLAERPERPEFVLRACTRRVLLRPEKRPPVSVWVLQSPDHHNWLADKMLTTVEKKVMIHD

[5] = biological target: T1, 5-hydroxytryptamine receptor 1A (Homo sapiens, UniProt P08908); assay: (§1) Displacement of [3H]8-OH-DPAT from human recombinant 5HT1A receptor incubated for […] by microbeta scintillation counting method
T1 sequence (P08908 whole entry): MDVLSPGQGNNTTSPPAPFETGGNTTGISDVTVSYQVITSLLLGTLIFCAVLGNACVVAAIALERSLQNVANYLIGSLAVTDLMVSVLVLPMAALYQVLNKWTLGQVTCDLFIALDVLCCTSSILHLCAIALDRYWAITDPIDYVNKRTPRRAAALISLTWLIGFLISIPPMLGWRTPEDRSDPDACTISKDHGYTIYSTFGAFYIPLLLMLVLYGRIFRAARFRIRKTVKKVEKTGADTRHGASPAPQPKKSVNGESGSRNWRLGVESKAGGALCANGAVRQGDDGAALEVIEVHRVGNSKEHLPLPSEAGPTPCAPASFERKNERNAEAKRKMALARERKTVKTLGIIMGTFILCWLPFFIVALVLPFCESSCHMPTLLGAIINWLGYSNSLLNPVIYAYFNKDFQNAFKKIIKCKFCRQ

[6] = biological target: T2, 5-hydroxytryptamine receptor 2C (5HT2C) (Homo sapiens, UniProt P28335); assay: (§2) Displacement of [3H]Mesulergine from human recombinant 5HT2C receptor incubated for […] by microbeta scintillation counting method; details: human, recombinant 5HT2C receptor, probe [3H]Mesulergine
T2 sequence (P28335 whole entry): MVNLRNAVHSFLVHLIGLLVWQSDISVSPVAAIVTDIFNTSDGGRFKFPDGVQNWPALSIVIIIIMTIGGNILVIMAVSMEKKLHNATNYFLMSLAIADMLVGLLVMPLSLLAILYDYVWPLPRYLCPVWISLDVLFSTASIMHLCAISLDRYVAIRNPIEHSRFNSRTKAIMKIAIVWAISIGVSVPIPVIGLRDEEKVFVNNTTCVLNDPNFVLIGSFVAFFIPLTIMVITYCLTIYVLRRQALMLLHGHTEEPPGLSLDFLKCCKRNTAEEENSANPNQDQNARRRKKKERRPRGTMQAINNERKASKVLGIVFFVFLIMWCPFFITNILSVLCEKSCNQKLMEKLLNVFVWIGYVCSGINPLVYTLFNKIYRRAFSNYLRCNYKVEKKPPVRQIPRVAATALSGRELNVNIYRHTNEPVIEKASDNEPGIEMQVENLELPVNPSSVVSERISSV

D(4) dopamine receptor = biological target: T3, D(4) dopamine receptor (Homo sapiens, UniProt P21917); assay: Displacement of [3H]N-methylspiperone from human recombinant dopamine D4 receptor incubated for […] by microbeta scintillation counting method
T3 sequence (P21917 whole entry): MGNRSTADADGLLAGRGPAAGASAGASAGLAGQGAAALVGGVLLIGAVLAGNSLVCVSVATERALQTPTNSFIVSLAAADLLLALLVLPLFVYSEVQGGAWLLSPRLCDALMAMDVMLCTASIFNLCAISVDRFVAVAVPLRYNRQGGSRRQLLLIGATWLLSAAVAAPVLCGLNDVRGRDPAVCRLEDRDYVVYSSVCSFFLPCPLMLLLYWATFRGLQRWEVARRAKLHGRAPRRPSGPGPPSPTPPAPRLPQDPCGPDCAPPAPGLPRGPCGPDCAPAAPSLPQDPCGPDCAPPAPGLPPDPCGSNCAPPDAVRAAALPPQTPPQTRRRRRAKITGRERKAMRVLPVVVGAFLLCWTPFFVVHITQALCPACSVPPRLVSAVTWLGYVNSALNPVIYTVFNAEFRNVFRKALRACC

D(3) dopamine receptor [7] = biological target: T4, D(3) dopamine receptor (Homo sapiens, UniProt P35462); assay: Displacement of [3H]N-methylspiperone from human recombinant dopamine D3 receptor incubated for […] by microbeta scintillation counting method
T4 sequence (P35462 whole entry): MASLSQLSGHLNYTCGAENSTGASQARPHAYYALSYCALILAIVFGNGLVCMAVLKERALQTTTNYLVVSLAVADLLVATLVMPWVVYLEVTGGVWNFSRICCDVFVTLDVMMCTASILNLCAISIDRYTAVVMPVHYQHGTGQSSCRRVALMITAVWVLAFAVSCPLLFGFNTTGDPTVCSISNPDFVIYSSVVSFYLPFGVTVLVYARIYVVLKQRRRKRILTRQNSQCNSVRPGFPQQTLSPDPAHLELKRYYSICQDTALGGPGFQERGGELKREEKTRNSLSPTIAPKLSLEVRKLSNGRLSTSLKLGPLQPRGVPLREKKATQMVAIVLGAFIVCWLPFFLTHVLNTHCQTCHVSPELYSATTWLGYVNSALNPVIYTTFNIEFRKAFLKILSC

D(2) dopamine receptor = D(2) dopamine receptor (Homo sapiens, UniProt P14416); assay: Displacement of [3H]N-methylspiperone from human recombinant dopamine D2 receptor incubated for […] by microbeta scintillation counting method
D(2) dopamine receptor, sequence (P14416 whole entry): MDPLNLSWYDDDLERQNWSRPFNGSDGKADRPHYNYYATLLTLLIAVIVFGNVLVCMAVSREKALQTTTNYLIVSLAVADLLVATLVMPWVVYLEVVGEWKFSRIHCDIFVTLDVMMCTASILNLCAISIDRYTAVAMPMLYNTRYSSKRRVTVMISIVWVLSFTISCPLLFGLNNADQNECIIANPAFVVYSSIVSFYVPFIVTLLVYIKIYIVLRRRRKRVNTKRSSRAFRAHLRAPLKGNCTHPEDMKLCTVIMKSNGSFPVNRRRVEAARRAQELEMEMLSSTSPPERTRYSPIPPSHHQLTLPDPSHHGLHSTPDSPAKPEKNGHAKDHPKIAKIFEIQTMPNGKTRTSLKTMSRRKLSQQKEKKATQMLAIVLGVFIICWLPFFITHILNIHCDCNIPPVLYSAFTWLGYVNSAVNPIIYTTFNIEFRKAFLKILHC

[8] = biological target: T5, 5-hydroxytryptamine receptor 2A (Homo sapiens, UniProt P28223); assay: Displacement of [3H]Ketanserin from human recombinant 5HT2A receptor incubated for […] by microbeta scintillation counting method
T5 sequence (P28223 whole entry): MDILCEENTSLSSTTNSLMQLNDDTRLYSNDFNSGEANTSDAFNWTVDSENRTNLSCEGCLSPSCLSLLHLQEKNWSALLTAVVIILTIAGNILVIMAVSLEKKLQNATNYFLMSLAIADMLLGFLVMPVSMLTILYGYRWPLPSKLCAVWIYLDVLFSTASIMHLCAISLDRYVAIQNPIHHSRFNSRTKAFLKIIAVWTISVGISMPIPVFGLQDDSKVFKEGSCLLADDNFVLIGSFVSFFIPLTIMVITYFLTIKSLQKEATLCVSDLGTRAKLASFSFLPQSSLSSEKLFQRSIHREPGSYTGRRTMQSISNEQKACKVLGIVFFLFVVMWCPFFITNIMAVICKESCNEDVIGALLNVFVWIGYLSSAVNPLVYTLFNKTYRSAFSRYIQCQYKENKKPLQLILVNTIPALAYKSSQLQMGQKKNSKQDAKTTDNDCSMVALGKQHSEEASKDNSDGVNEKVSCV

[9] = biological target: T6, 5-hydroxytryptamine receptor 2C (Homo sapiens, UniProt P28335); assay: as §2
T6 sequence (P28335 whole entry): T2 sequence (P28335 whole entry)

[10] = biological target: T7, 5-hydroxytryptamine receptor 1A (Homo sapiens) (UniProt P08908); assay: as §1
T7 sequence (whole entry): T1 sequence (P08908 whole entry)

[11] = biological target: T5, 5-hydroxytryptamine receptor 2A; assay: Binding affinity to 5HT2A receptor (unknown origin)
D(3) dopamine receptor [12] = biological target: T4, D(3) dopamine receptor; assay: Displacement of [125I]-IABN from human recombinant dopamine D3 receptor expressed in HEK293 cell membrane incubated for 60 mins filtration binding assay

Histamine H1 receptor, sequence (P35367 whole entry): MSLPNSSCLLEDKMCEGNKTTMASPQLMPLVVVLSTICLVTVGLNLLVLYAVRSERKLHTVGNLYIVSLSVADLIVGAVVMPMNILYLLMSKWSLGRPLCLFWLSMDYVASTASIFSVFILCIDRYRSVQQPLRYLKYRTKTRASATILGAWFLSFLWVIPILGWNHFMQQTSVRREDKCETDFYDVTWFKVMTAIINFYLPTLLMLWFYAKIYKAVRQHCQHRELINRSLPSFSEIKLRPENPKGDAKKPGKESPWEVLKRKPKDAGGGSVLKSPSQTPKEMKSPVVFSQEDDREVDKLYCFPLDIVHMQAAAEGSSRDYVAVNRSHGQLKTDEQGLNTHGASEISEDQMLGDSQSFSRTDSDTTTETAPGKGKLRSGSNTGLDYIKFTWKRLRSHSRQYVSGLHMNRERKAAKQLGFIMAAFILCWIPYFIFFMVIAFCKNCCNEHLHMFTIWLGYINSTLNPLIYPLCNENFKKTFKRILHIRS
5-hydroxytryptamine receptor 2B, sequence (P41595 whole entry): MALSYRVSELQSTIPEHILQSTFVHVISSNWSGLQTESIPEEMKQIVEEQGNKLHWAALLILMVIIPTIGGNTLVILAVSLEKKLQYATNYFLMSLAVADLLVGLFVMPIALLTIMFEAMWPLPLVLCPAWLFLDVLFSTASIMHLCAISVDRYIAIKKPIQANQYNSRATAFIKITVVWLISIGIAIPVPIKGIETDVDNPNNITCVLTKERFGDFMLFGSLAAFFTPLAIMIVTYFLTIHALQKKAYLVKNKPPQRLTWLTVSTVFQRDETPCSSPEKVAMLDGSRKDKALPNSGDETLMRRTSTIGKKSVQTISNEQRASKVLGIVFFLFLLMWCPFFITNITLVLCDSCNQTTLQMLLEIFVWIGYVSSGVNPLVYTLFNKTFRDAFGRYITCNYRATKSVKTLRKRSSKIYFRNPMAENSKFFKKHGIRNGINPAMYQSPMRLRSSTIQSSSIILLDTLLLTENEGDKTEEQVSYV

Compound | Ki [1] [nM] | Ki (Histamine H1 receptor; read-out: Ki) [nM] | Ki [4] [nM] | Ki [5] [nM] | inhibition at […] [6] [%] | Ki (D(4) dopamine receptor) [nM] | Ki (D(3) dopamine receptor [7]) [nM] | Ki (D(2) dopamine receptor) [nM] | Ki [8] [nM] | also measured
O=C1NCN(c2ccccc2)C12CCN(CCCCc1c[nH]c3ccccc13)CC2 | 202 | 273 | > 10000 | 376 | < 50 | 1.6 | 31 | – | – | logP [2]: 3.52; Ki ([3]; read-out: Ki): 10 nM; Ki ([3]; read-out: pKi (converted)): 4.68 nM
O=C(CCCN1CCC2(CC1)C(=O)NCN2c1ccccc1)c1ccc(F)cc1 [SPIPERONE] | – | – | – | – | – | – | – | – | – | logP [2]: 2.78
O=C1NCN(c2ccccc2)C12CCN(CCCCc1nc3ccccc3o1)CC2 | 905 | 535 | 1510 | 382 | < 50 | 118 | 21 | 10 | – | inhibition [8]: < 50%; inhibition [3]: < 50%
O=C(CCCCN1CCC2(CC1)C(=O)NCN2c1ccccc1)c1nc2ccccc2s1 | – | – | – | – | < 50 | 162 | 18 | – | – | –
O=C1NCN(c2ccccc2)C12CCN(CCCCc1nc3cc(Cl)ccc3s1)CC2 | 36 | 263 | – | 102 | – | – | 499 | 18 | – | Ki (Histamine H1 receptor; read-out: pKi (converted)): 275 nM; Ki ([3]; read-out: Ki): 3060 nM; Ki [9]: 614 nM
OC1(c2ccc(Cl)cc2)CCN(CCCCc2nc3ccccc3o2)CC1 | – | – | – | 3150 | – | 229 | 942 | 438 | 5970 | inhibition [4]: < 50%
Fc1ccc(C(c2ccc(F)cc2)N2CCN(CCCCc3nc4ccccc4s3)CC2)cc1 | – | – | 778 | – | – | 68 | 33 | 195 | 519 | inhibition [10]: < 50%
OC1(c2ccc(Cl)cc2)CCN(CCCCc2nc3ccccc3s2)CC1 | – | – | – | – | – | – | 291 | – | – | –
O=C1NCN(c2ccccc2)C12CCN(CCCCc1nc3ccccc3s1)CC2 | 122 | 504 | 626 | 195 | < 50 | 132 | 32 | 24 | > 10000 | inhibition [3]: < 50%
O=C(CCCN1CCC(O)(c2ccc(Cl)cc2)CC1)c1ccc(F)cc1 [HALOPERIDOL] | – | – | – | – | – | – | – | – | – | logP [2]: 3.49
OC1(c2ccc(Cl)cc2)CC2CCC(C1)N2CCCCc1nc2ccccc2s1 (stereo not drawn) | 342 | – | 1010 | – | – | – | – | – | – | Ki ([3]; read-out: Ki): 180 nM
O=C(CCCCN1CCN(C(c2ccc(F)cc2)c2ccc(F)cc2)CC1)c1nc2ccccc2s1 | – | – | 562 | – | – | 1220 | 233 | 159 | 1080 | inhibition [10]: < 50%
OC1(c2ccc(Cl)cc2)CCN(CCCc2nc3ccccc3s2)CC1 | – | – | 189 | 34 | – | 163 | 28 | 763 | 168 | –
O=C(CCCN1CCC(n2c(O)nc3ccccc32)CC1)c1ccc(F)cc1 [BENPERIDOL] | – | – | – | – | – | – | – | – | – | Ki [11]: 1.2 nM; Ki (D(3) dopamine receptor [12]): 0.29 nM
Cl.O=C(CCCCN1C2CCC1CC(O)(c1ccc(Cl)cc1)C2)c1nc2ccccc2s1 (stereo not drawn) | 758 | 1030 | 80 | – | < 50 | – | – | – | – | pKi (D(2) dopamine receptor): 6.74; inhibition [8]: < 50%; Ki ([3]; read-out: Ki): 54 nM; Ki ([3]; read-out: pKi (converted)): 4.68 nM; inhibition [10]: < 50%
O=C(CCCCN1CCC(n2c(=O)[nH]c3cc(Cl)ccc32)CC1)c1nc2ccccc2s1 | – | – | – | – | – | – | 64 | – | – | –
